Measured values reported in publication PMC4169866 (Investigational New Drugs, 2014).
Entries after “also recorded” stand apart in the source; their conditions may differ. Counter-ions that a name gives are not always drawn.

Key:
colo-205 cells = experiment: DNA content / G1 arrest assay, colo-205 (Acumen); assay type: cell-based, human; conditions: for 2N cell population / 4N cell population / S cell population: Colo-205 cells
Procedure: (§1) Details for the cellular assays are provided in the supplemental materials. Briefly, image-based assays (Acumen Explorer, TPP LabTech) were used for compound screening. […] After treatment, the cells were washed, fixed and stained with antibodies to detect phosphoproteins and Propidium Iodide to monitor DNA content. The plates were then analyzed on an Acumen Explorer (TTP Labtech). The IC50 and EC50 values are determined by curve fitting to a 4-parameter logistic for each output using ACTIVITY BASE™ software.
(§2) Fixed cells are blocked with 1% bovine serum albumin (BSA, Amersham cat # RPN412V) for 30 minutes. […] Image analysis is based on cellular fluorescent signals for identifying cells in different subpopulations. Assay outputs are a percentage of each identified subpopulations; percent phosphoRB positive, percent 2 N, and percent 4 N. The IC50 and EC50 values are determined by curve fitting to a 4-parameter logistic for each output using ACTIVITY BASE™.

pCTD (pSer2) U2OS = experiment: Cellular assay for inhibition of RNA polymerase CTD (Ser2) phosphorylation (pCTD), U2OS; assay type: cell-based; conditions: Homo sapiens, n=1
Procedure: U20S cells are cultured in McCoy’s 5A modified media (Invitrogen), supplemented with 10% FBS and plated in 96-well, flat-bottom plates at a density of 5,000 cells/well for incubation overnight. Compounds in DMSO stock solution are diluted serially 1:3 in McCoy’s 5A media and incubated with cells for 16 hours for multiplexing pCTD/DNA content readouts. Cells are fixed with Prefer (Anatech LTD, MI) for 30 minutes at room temperature and permeated with 0.1% Triton-X 100 in PBS or cold methanol (-20°C) for 15 minutes, respectively. After blocking with 1% BSA/PBS for 30 min, cells are incubated with primary antibody (CTD p-Ser2, Covance) at 1:1000 dilution in 1% BSA/PBS containing 50 ug/ml RNAse (R6513, Sigma) at 4°C overnight. […] The IC50 and EC50 values are determined by curve fitting to a 4-parameter logistic for each output using ACTIVITY BASE™.
The assay detects CDK9 activity through both the inhibition of phosphorylation ser2 of the C-terminal repeat domain (pCTD) of RNA polymerase II, and a CDK9-modulated G2/M arrest [accumulation of cells with 4N DNA content]

U2OS cells = experiment: DNA content (cell cycle) in U2OS phenotypic assay; assay type: cell-based, human
Procedure: U20S cells are cultured in McCoy's 5A modified media (Invitrogen), supplemented with 10% FBS and plated in 96-well, flat-bottom plates at a density of 5,000 cells/well for incubation overnight. Compounds in DMSO stock solution are diluted serially 1:3 in McCoy's 5A media and incubated with cells for 16 hours for multiplexing pCTD/DNA content readouts. Cells are fixed with Prefer (Anatech LTD, MI) for 30 minutes at room temperature and permeated with 0.1% Triton-X 100 in PBS or cold methanol (-20°C) for 15 minutes, respectively. After blocking with 1% BSA/PBS for 30 min, cells are incubated with primary antibody (CTD p-Ser2, Covance) at 1:1000 dilution in 1% BSA/PBS containing 50 ug/ml RNAse ([…], Sigma) at 4°C overnight. […] Table S1 and Figure S1.

bRaf = bRaf (Homo sapiens, UniProt P15056); experiment: Biochemical kinase profiling bRaf
Sequence of bRaf (P15056 whole entry): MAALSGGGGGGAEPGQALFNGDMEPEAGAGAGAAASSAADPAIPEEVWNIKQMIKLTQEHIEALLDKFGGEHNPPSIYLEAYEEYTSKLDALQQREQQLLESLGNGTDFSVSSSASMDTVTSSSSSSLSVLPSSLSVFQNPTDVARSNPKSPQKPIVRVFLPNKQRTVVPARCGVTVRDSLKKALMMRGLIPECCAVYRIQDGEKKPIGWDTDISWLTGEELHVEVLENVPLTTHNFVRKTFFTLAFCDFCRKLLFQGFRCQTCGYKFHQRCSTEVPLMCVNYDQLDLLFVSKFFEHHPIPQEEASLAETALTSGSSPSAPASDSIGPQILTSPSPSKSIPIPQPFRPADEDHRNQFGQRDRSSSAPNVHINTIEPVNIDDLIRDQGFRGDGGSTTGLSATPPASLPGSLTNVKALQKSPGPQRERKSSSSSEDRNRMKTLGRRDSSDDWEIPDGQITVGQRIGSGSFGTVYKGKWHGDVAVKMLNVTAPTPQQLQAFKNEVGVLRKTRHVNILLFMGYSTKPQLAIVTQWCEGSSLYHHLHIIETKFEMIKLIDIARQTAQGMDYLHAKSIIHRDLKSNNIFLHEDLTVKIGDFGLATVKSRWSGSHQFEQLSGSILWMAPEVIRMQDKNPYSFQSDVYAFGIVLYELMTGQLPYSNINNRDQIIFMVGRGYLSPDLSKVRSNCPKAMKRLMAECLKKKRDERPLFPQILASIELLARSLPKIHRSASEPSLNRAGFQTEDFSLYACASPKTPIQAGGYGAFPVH

Aurora A = Aurora A (Homo sapiens, UniProt O14965); experiment: Biochemical kinase profiling Aurora A
Sequence of Aurora A (O14965 whole entry): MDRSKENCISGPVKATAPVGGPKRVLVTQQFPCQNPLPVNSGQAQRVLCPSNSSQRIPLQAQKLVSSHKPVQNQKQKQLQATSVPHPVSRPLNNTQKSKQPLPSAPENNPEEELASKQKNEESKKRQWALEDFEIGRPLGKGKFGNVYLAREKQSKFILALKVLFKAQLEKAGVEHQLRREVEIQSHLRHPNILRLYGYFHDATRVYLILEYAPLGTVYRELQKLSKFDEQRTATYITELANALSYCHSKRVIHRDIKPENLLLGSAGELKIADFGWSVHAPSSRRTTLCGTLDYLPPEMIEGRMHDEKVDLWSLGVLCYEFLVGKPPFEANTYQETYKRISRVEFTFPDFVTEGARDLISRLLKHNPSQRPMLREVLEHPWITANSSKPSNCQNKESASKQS

Aurora B = Aurora B (Homo sapiens, UniProt Q96GD4); experiment: Biochemical kinase profiling Aurora B
Sequence of Aurora B (Q96GD4 whole entry): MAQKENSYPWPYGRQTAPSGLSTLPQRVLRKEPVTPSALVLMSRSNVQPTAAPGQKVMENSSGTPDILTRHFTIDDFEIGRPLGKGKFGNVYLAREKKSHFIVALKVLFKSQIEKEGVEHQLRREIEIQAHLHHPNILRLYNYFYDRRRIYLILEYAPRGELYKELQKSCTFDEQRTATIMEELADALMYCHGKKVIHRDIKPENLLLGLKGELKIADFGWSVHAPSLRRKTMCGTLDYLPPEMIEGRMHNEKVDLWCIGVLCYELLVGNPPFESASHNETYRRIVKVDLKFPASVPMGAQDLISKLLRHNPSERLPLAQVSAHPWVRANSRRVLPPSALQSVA

PLK1 = PLK1 (Homo sapiens, UniProt P53350); experiment: Biochemical kinase profiling PLK1
Sequence of PLK1 (P53350 whole entry): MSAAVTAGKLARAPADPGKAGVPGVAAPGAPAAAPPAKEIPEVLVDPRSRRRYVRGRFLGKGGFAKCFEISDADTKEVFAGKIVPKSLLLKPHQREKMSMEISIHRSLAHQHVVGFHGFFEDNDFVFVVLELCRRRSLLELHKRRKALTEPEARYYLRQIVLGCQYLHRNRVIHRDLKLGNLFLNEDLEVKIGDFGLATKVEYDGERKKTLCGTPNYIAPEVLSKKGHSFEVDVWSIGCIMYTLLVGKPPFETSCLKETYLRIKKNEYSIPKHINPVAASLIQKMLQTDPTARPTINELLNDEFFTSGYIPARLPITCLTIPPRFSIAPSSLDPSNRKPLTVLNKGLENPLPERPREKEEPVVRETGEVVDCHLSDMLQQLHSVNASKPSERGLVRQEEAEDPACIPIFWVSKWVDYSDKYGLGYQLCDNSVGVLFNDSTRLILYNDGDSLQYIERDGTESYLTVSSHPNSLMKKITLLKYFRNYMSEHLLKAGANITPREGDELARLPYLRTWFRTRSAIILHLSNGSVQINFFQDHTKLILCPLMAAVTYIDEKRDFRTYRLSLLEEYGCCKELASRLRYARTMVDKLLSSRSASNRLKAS

PLK3 = PLK3 (Homo sapiens, UniProt Q9H4B4); experiment: Biochemical kinase profiling PLK3
Sequence of PLK3 (Q9H4B4 whole entry): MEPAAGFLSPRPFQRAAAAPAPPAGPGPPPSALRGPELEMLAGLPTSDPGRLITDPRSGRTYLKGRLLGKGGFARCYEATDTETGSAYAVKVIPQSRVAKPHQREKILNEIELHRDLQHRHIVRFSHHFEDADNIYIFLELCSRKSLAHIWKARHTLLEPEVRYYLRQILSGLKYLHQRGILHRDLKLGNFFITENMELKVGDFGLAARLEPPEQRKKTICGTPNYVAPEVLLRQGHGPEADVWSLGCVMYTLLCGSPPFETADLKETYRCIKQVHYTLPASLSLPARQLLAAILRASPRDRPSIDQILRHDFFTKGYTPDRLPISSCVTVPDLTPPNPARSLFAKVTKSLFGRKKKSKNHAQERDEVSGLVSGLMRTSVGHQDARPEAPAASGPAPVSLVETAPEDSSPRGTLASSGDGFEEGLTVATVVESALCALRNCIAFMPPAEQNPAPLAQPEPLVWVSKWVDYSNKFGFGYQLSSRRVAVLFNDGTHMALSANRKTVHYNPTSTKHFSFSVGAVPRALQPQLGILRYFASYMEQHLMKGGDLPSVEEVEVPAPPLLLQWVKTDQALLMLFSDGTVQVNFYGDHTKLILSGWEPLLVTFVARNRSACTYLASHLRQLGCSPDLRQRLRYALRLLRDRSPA

ERK1 = ERK1 (Homo sapiens, UniProt P27361); experiment: Biochemical kinase profiling ERK1
Sequence of ERK1 (P27361 whole entry): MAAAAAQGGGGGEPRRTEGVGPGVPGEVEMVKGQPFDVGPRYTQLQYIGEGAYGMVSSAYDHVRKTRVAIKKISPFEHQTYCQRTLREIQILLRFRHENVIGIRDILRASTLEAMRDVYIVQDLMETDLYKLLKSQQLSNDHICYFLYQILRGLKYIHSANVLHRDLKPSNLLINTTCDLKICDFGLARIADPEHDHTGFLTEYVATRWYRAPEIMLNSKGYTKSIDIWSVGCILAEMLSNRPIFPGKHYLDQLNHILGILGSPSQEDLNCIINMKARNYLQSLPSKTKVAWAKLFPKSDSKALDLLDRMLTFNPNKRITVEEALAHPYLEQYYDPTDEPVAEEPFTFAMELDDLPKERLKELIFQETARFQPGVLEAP

cRaf = cRaf (Homo sapiens, UniProt P04049); experiment: Biochemical kinase profiling cRaf
Sequence of cRaf (P04049 whole entry): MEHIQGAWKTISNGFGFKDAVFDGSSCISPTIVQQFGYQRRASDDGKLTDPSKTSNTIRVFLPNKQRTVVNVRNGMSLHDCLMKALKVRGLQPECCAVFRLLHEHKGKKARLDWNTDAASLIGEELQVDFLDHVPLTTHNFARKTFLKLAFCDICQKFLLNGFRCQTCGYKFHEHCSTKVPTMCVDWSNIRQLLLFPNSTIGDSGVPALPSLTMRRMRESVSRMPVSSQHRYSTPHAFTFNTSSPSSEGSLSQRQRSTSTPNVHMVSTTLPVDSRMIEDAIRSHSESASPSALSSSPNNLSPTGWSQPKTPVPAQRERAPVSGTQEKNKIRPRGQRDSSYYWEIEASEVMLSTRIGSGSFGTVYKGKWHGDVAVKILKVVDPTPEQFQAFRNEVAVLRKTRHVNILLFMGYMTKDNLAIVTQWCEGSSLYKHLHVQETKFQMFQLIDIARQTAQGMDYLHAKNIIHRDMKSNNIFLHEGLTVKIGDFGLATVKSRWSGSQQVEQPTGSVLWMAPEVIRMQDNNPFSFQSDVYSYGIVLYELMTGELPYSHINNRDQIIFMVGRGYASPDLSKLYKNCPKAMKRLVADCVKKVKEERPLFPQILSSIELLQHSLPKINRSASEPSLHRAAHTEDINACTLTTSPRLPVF

AKT1 = AKT1 (Homo sapiens, UniProt P31749); experiment: Biochemical kinase profiling AKT1
HIPK2 = molecular target: T1, HIPK2 (Homo sapiens, UniProt Q9H2X6); experiment: Millipore (UBI) kinase panel HIPK2; assay type: biochemical; conditions: generated at millipore (UBI) kinase panel
T1 construct: purchased Millipore/UBI

DRAK1 = molecular target: T2, DRAK1 (Homo sapiens, UniProt Q9UEE5); experiment: Millipore (UBI) kinase panel DRAK1; assay type: biochemical; conditions: generated at millipore (UBI) kinase panel
T2 construct: purchased Millipore/UBI
T2 sequence (Q9UEE5 whole entry): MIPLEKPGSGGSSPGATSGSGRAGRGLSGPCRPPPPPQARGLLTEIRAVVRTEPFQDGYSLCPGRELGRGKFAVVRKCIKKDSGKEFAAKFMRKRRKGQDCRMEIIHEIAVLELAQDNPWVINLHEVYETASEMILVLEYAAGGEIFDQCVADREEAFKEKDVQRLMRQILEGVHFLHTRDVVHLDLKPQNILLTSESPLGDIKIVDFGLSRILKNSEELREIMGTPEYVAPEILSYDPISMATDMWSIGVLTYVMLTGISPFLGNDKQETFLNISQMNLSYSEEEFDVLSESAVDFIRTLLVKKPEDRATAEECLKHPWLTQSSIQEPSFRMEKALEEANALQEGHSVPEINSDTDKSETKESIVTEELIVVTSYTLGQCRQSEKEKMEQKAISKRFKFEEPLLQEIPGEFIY

TRKA = molecular target: T3, TRKA (Homo sapiens, UniProt P04629); experiment: Millipore (UBI) kinase panel TRKA; assay type: biochemical; conditions: generated at millipore (UBI) kinase panel
T3 construct: purchased Millipore/UBI
T3 sequence (P04629 33-796): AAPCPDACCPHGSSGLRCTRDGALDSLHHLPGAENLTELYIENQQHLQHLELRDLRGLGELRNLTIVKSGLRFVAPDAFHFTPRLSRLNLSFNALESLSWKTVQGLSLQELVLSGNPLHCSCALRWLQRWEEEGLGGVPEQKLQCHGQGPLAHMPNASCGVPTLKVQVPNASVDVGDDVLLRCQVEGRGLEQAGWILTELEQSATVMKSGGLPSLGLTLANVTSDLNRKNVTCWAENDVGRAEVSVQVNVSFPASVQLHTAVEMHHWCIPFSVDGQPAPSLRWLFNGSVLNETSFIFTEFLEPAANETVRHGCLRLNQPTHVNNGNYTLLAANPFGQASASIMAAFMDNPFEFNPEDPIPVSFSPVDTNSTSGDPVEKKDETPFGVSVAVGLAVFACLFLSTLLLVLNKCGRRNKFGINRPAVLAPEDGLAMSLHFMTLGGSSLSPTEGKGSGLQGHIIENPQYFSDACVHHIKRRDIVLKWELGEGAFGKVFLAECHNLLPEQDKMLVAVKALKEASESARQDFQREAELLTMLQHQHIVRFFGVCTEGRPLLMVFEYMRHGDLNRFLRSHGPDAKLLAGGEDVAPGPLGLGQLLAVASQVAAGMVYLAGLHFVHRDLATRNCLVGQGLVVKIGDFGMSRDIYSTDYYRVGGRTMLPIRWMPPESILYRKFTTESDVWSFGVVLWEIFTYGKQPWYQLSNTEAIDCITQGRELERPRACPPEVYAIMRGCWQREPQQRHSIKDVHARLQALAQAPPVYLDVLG

pRb (pSer780) colo-205 = experiment: Cellular assay for inhibition of p-Rb (Ser780), colo-205 (Acumen); assay type: cell-based; conditions: Homo sapiens, Fig. 2a, as given in discussion
Procedure: as §1, §2

pERK HCT116 = experiment: pERK inhibition, HCT116; assay type: cell-based; conditions: Homo sapiens, HCT-116; read-out: pERK inh. HCT116 IC50
pERK A375 = experiment: pERK inhibition, A375; assay type: cell-based; conditions: Homo sapiens, A-375; read-out: pERK inh. A375 IC50
[1] = system: MV4-11 acute myelocytic leukemia (AML) cells; experiment: Flow cytometry cell cycle distribution, MV4-11; assay type: cell-based, human
Procedure: (§3) Flow cytometry was also used to determine cell cycle distribution in cell lines, as described in the supplemental materials.
(§4) Flow cytometry was used to determine cell cycle distribution in cell lines. Cells were cultured in growth media under subconfluent conditions and treated with indicated concentrations of compound solubilized in DMSO for 24 hours at 37°C/5% CO2. After treatment, cells were collected, washed once with 4° C PBS, and fixed with 70% ethanol/30% water at -20 °C for 30 minutes. Cells were then collected by centrifugation, washed once with PBS, and stained for 30 minutes at room temperature by the addition of 1 mL of propidium iodide/Triton X-100 staining solution (20µg/mL of propidium iodide, 200µg/mL DNase-free RNase A, 0.1%(v/v) Triton x-100). Cell cycle analysis was performed using a Cytomics™ FC500 (Coulter); data were analyzed using ModFit v3.1 software (Verity).

[2] = system: Rb-proficient MDA-MB-231 breast cancer cells; experiment: Flow cytometry cell cycle distribution, MDA-MB-231; assay type: cell-based, human
Procedure: as §3, §4

[3] = system: Rb-deficient MDA-MB-468 breast cancer cells; experiment: Flow cytometry cell cycle distribution, MDA-MB-468; assay type: cell-based, human; conditions: MDA-MB-468, concentrations up to 2,500 nmol/L
[4] = system: Colo-205 colorectal xenografts; experiment: Subcutaneous colo-205 xenograft antitumor activity; assay type: in vivo, mice; conditions: for Percent delta T/C, percent regression: Colo-205 colorectal
Procedure: (§5) All animal studies were performed in accordance with American Association for Laboratory Animal Care institutional guidelines, and all protocols were approved by the Eli Lilly and Company Animal Care and Use Committee. Tumor cell lines were grown, harvested, and resuspended in a 1:1 mixture of serum-free media and matrigel (BD Biosciences), and 5 × 10^6 cells were injected subcutaneously in the rear flank of 5-to-6-week-old CD1 nu/nu female mice (Charles River Laboratories for MV4-11, mice from Harlan Laboratories for others).
(§6) When the mean tumor volume was approximately 150–300 mm^3, animals were randomized by tumor volume and the compound was administered. […] Gemcitabine was formulated in saline and administered by intraperitoneal injection. Tumor volume and body weight were measured twice weekly. When tumors were collected for biomarker analysis, the animals were asphyxiated with CO2 and the xenograft tumors excised, flash frozen in liquid nitrogen, and stored at −80 °C until analyzed. For analysis, tumor volume data were transformed to a log scale to equalize variance across time and treatment groups. The log volume data were analyzed with a 2-way repeated measures analysis of variance by time and treatment using the MIXED procedure in SAS software (version 9.2). The correlation model for the repeated measures was spatial power. Treated groups are compared to the control group at each time point.

[5] = Tolerability in colo-205 xenograft-bearing mice; assay type: in vivo; conditions: 56-day schedules
Procedure: as §5, with “others). Tumor volume was estimated by using the formula: vol = l × w^2 × […], where one and w are perpendicular measured diameters, and one is greater than or equal to w.” for “others).”
When the mean tumor volume was approximately 150–300 mm^3, animals were randomized by tumor volume and the compound was administered. […]. Gemcitabine was formulated in saline and administered by intraperitoneal injection. Tumor volume and body weight were measured twice weekly. When tumors were collected for biomarker analysis, the animals were asphyxiated with CO2 and the xenograft tumors excised, flash frozen in liquid nitrogen, and stored at −80 °C until analyzed. […] The log volume data were analyzed with a 2-way repeated measures analysis of variance by time and treatment using the MIXED procedure in SAS software (version 9.2). […]

[6] = system: p-Rb, TopoIIα, pHH3 in colo-205 xenografts; conditions: 24 h after oral dosing
[7] = PK/PD model, colo-205 bearing mice, continuous dosing ref 37; cited from earlier work
[8] = phase 1 study in advanced cancer patients ref 38, 39; cited from earlier work
[9] = design: method as in manuscript in preparation; conditions: ref manuscript in preparation; cited from earlier work
MV4-11 AML xenografts = experiment: Subcutaneous MV4-11 xenograft antitumor activity; assay type: in vivo, mice; conditions: 50 mg/kg qdx21, day 49
Procedure: as §5
as §6, with “Treated groups are compared to the control group at each time point.” left out

[10] = system: U87 MG glioblastoma xenografts; experiment: Subcutaneous U87 MG xenograft antitumor activity; assay type: in vivo, mice; conditions: 50 mg/kg qdx21, day 31
Procedure: as §5
as §6, with “Treated groups are compared to the control group at each time point.” left out

H460 lung xenografts = experiment: Subcutaneous H460 xenograft antitumor activity; assay type: in vivo, mice; conditions: 50 mg/kg qdx21, day 35
Procedure: as §5
as §6, with “Treated groups are compared to the control group at each time point.” left out

Jeko1 MCL xenografts = experiment: Subcutaneous Jeko1 xenograft antitumor activity; assay type: in vivo, mice; conditions: 100 mg/kg, day 45
Procedure: as §5
as §6, with “Treated groups are compared to the control group at each time point.” left out

Calu-6 lung xenografts = experiment: Subcutaneous Calu-6 xenograft antitumor activity; assay type: in vivo, mice; conditions: 50 mg/kg LY2835219 oral, 60 or 150 mg/kg gemcitabine i.p.
Procedure: as §5
as §6, with “Treated groups are compared to the control group at each time point.” left out

[11] = system: RRM1 expression in Calu-6 xenografts; experiment: Western blot of RRM1 in Calu-6 xenograft tumors; assay type: in vivo, mice; conditions: 150 mg/kg dose, Calu-6 tumors 24 h after last dose
Procedure: as §6

[12] = colo-205 xenograft dose response

Work on `CN1CC[C@H](c2c(O)cc(O)c3c(=O)cc(-c4ccccc4Cl)oc23)[C@H](O)C1` [Flavopiridol] yielded a 2N cell population (colo-205 cells; 2.2 µM) of 54%, a 4N cell population (colo-205 cells; 2.2 µM) of 44% and a S cell population (colo-205 cells; 2.2 µM) of 2%. For the same compound, the 2N cell population (colo-205 cells; 6.6 µM) was 50%, the 4N cell population (colo-205 cells; 6.6 µM) was 49% and the S cell population (colo-205 cells; 6.6 µM) was 1%. For the same compound, the EC50 (colo-205 cells; Homo sapiens, COLO 205, read-out: G1 arrest in Colo205 (increase in cells with 2N DNA content) EC50) was over 20 µM, the IC50 (pCTD (pSer2) U2OS) was 147 nM and the 2N cell population (U2OS cells; 2.2 µM) was 22%. For the same compound, the 4N cell population (U2OS cells; 2.2 µM) was 74%, the S cell population (U2OS cells; 2.2 µM) was 4% and the 2N cell population (U2OS cells; 6.6 µM) was 23%. For the same compound, the 4N cell population (U2OS cells; 6.6 µM) was 72% and the S cell population (U2OS cells; 6.6 µM) was 5%.

With `CCN1CCN(Cc2ccc(Nc3ncc(F)c(-c4cc(F)c5nc(C)n(C(C)C)c5c4)n3)nc2)CC1` [LY2835219, [5-(4-Ethyl-piperazin-1-ylmethyl)-pyridin-2-yl]-[5-fluoro-4-(7-fluoro-3-isopropyl-2-methyl-3H-benzoimidazol-5-yl)-pyrimidin-2-yl]-amine] the IC50 (bRaf) was 6.33 µM, the IC50 (Aurora A) was over 20 µM and the “activity against Aurora A” value (Aurora A) was “Complete lack of activity”. The IC50 (Aurora B) was over 20 µM, the “activity against Aurora B” value (Aurora B) was “Complete lack of activity” and the IC50 (PLK1) was over 20 µM. For the same compound, the “activity against PLK1” value (PLK1) was “Complete lack of activity”, the IC50 (PLK3) was over 20 µM and the IC50 (ERK1) was over 20 µM. For the same compound, the IC50 (cRaf) was over 20 µM, the IC50 (AKT1) was over 20 µM and the IC50 (HIPK2) was 31 nM. For the same compound, the IC50 (DRAK1) was 659 nM, the IC50 (TRKA) was 1030 nM and the IC50 (pRb (pSer780) colo-205) was about 100 nM. For the same compound, the 4N cell population (colo-205 cells; 2.2 µM) was 16%, the S cell population (colo-205 cells; 2.2 µM) was 0% and the 2N cell population (colo-205 cells; 6.6 µM) was 75%. The 2N cell population (U2OS cells; 2.2 µM) was 56%, the S cell population (U2OS cells; 2.2 µM) was 6% and the 2N cell population (U2OS cells; 6.6 µM) was 44%. For the same compound, the S cell population (U2OS cells; 6.6 µM) was 7%, the IC50 (pERK HCT116) was over 20 µM and the IC50 (pERK A375) was over 20 µM. For the same compound, the “compound concentration up to which G1 arrest was sustained” value ([1]; MV4-11) was “up to 5,000 nmol/L”, the “concentration at which maximum G1 arrest was seen” value ([1]; MV4-11, 24 h) was at least 320 nmol/L and the “G1 arrest in Rb-proficient cells” value [2] was “induced a G1 arrest”. The “G1 arrest in Rb-deficient cells” value [3] was “no such effect”, the “minimally efficacious dose for tumor growth inhibition” value ([4]; colo-205 xenografts) was 12.5 mg/kg and the “histopathologic evaluation of intestinal tissue (jejunum, ileum, cecum)” value ([5]; days 41 and 69) was “no significant changes in intestinal tissue”. The hematologic changes ([5]; not dose-limiting) was “decreases in red cell mass and moderately reduced lymphocyte count”, the “TED70 for in vivo inhibition of TopoII” value [6, 12] was 14 mg/kg and the “TED70 for in vivo inhibition of pRb” value [6, 12] was 14 mg/kg. For the same compound, the “doses at which p-Rb, TopoIIα and pHH3 were all significantly inhibited” value ([6]; colo-205 xenografts) was at least 12.5 mg/kg, the “minimum steady state trough plasma concentration required for robust efficacy” value [7] was “approximately 200 ng/mL; also recorded: approximately 400 nM” and the “mean maximum steady state plasma concentration” value [8] was 562 nM. For the same compound, the “ability to cross the blood–brain barrier” value [9] was “effectively cross the blood–brain barrier”.

In the case of `CC(=O)c1c(C)c2cnc(Nc3ccc(N4CCNCC4)cn3)nc2n(C2CCCC2)c1=O` [PD0332991, 6-Acetyl-8-cyclopentyl-5-methyl-2-[[5-(1-piperazinyl)-2-pyridinyl]amino] pyrido[2,3-d] pyrimidin-7 (8H)-one], the “Percent delta T/C, percent regression” value ([4]; 50 mg/kg (schedule not given), day 39) is reported as 7%, the “Percent delta T/C, percent regression” value ([4]; 100 mg/kg qdx21, day 35) is reported as −1% and the “Percent delta T/C, percent regression” value (MV4-11 AML xenografts) is reported as 16%. For the same compound, the “Percent delta T/C, percent regression” value [10] was 26%, the “Percent delta T/C, percent regression” value (H460 lung xenografts) was 60% and the “Percent delta T/C, percent regression” value (Jeko1 MCL xenografts) was 12%.

With `Nc1ccn([C@@H]2O[C@H](CO)[C@@H](O)C2(F)F)c(=O)n1` [gemcitabine, 2′,2′-difluorodeoxycytidine hydrochloric salt] the “tumor growth inhibition, compound alone” value (Calu-6 lung xenografts) was “active in inhibiting tumor growth” and the “increase of RRM1 compared to vehicle” value [11] was 75%.
